Columns and labels:
CT-DNA = test: Switch-on NIR-fluorescence enhancement with DNA; format: binding, Calf
Procedure: All the chemicals, reagents, single-stranded oligos (dA20, dT20, dG20, dC20), self-complementary oligos {d(ATAT)5, (D1)mix, Drew-AT, Calf-Thymus DNA (CT-DNA), (DM1, DM2, DM3, DM4, DM5, DM6 and DM7)}, RNA, were purchased from Sigma-Aldrich. ^1H and ^13C NMR spectra were recorded on a Bruker AV-400 MHz spectrometer with chemical shifts reported as parts per million (ppm) (in DMSO-d6, tetramethylsilane as an internal standard) at 20° C. UV-vis absorption and emission spectra were measured in quartz cuvettes of 1 cm path length. High resolution mass spectra (HRMS) were obtained on Agilent Technologies 6538 UHD Accurate-Mass Q-TOF LC/MS spectrometer. All biophysical studies (UV-vis, fluorescence and Cirular dichroism) are carried out at the concentration 0-5 μM of probe, volume=500 μL, temperature=25° C. and time of incubation=2 minutes. […]
The UV-vis absorption and emission spectra are recorded on Agilent Technologies Cary series UV-vis-NIR absorbance and Cary eclipse fluorescence spectrophotometers, respectively. […] Absorption is monitored at 260 nm with regular 5° C. intervals. Melting temperatures (Tm) of DNA samples are calculated from the first derivatives of the absorption vs. temperature curves (thermal denaturation or melting curves) obtained by monitoring at 260 nm. […]

HeLa cells = test: Fluorescence study in fixed cells; format: cell-based; conditions: 0.5 and 1 μM, Hoechst as control
Procedure: HeLa cells are grown on the cover slip for about 24 hours in DMEM medium supplemented with 10% fetal bovine serum at about 37° C. in a humidified atmosphere containing 5% CO2 till 80% confluency is achieved. Then cells are fixed with 4% paraformaldehyde in PBS for 10 min. After rinsing twice with PBS, HeLa cells are treated separately with probe QCy-DT at various concentrations (0.5 μM and 1 μM) for 10 min at room temperature. Subsequently, cover slips are incubated with Hoechst 33258 at 10 μg/mL for nuclear staining. Fluorescence images are taken by Carl Zeiss Laser Scanning Microscope (LSM510 META).
In order to check its permeability, cellular uptake studies are carried out in live and fixed conditions of MCF-7 and HeLa cells, respectively. First, MCF-7 cells are incubated with probe QCy-DT (0.5 and 1 μM) without fixing, and live cell imaging is conducted using Carl Zeiss fluorescence microscope as described above. […] Next, HeLa cells are fixed and incubated with QCy-DT (0.5 and 1 μM) along with Hoechst as the control nuclear staining dye. […] Therefore, staining results obtained with live and fixed cells confirmed high cell permeability, efficiency (low staining concentration of 1 μM), and preferential targeting of cell nuclear DNA.

MCF-7 cells = test: Cell viability assay (MTT); format: cell-based; conditions: MCF-7, up to 8 μM, about 72 hours
Procedure: MCF-7 cells (4×10^3 cells/well) are seeded in 96-well plate (flat bottom) and cultured for 12 hours. Following this, cells are treated with […] of probe QCy-DT respectively for about 72 hours and further incubated in a humidified CO2 incubator at about 37° C. 20 μL of MTT (5 mg/mL in PBS) solution is added to each well and incubated for about 4 hours at about 37° C. in the CO2 incubator. DMSO (200 μL) is then added to each well. After about 1 hour, absorbance is taken in ELISA microplate reader at 570 nm wavelength.
Following formula is applied for the calculation of percentage of cell viability (CV): CV=(absorbance of the experimental samples/absorbance of the control sample)×100
The data is normalized with control and plotted with mean and standard error.

P. falciparum strain 3D7 = test: Live fluorescence imaging of malaria parasites; format: cell-based, Plasmodium falciparum; conditions: 0.5 μM, early trophozoite stage, 30 min
Procedure: P. falciparum strain 3D7 is cultured. Briefly, malaria parasites are cultured in human erythrocytes in T75 flasks with RPMI 1640 (Gibco) supplemented with 10 μg/mL gentamicin (Sigma), 50 μg/mL ampicillin, 0.2% NaHCO3 (Sigma), 0.5% albumax (Invitrogen) and Hypoxanthine (27 mg/L). The culture is maintained under standard conditions (37° C. in 90% nitrogen, 5% CO2, and 5% O2). For synchronization of the parasites, ring-staged parasites are treated with 5% sorbitol at 37° C. for about 5-10 min, followed by washing with pre-warmed incomplete medium twice, and placed back in complete medium. QCy-DT probe (resuspended in Mili-Q water) is added to parasites (25±2 hpi) at a final concentration of 0.5 μM and the parasites are incubated for 30 min at 37° C. Following treatment fluorescence imaging of the parasites is performed using Carl Zeiss AXIO Imager Z1 and the software used for image capturing was AxioVision Rel. 4.8.

Compound: C[n+]1c(/C=C/c2ccc(O)c(/C=C/c3sc4ccccc4[n+]3C)c2)sc2ccccc21 [QCy-DT, quinone cyanine-dithiazole]
- fluorescence enhancement (CT-DNA): ~40 fold
- nuclear staining (HeLa cells): selective staining of the cell nucleus, and remarkable co-localization with Hoechst dye
- cell viability (MCF-7 cells): > 76%
- parasite staining (P. falciparum strain 3D7): specifically stain the parasite nuclei

From patent US10683273B2, “Compounds as DNA probes, methods and applications thereof” (JAWAHARLAL NEHRU CENTRE FOR ADVANCED SCIENTIFIC RESEARCH, priority 2015, dated 2020)
